This experiment deals with T1, Capsid scaffolding protein (Human cytomegalovirus (strain AD169) (HHV-5) (Human herpesvirus 5), UniProt P16753).
T1 sequence (P16753 whole entry): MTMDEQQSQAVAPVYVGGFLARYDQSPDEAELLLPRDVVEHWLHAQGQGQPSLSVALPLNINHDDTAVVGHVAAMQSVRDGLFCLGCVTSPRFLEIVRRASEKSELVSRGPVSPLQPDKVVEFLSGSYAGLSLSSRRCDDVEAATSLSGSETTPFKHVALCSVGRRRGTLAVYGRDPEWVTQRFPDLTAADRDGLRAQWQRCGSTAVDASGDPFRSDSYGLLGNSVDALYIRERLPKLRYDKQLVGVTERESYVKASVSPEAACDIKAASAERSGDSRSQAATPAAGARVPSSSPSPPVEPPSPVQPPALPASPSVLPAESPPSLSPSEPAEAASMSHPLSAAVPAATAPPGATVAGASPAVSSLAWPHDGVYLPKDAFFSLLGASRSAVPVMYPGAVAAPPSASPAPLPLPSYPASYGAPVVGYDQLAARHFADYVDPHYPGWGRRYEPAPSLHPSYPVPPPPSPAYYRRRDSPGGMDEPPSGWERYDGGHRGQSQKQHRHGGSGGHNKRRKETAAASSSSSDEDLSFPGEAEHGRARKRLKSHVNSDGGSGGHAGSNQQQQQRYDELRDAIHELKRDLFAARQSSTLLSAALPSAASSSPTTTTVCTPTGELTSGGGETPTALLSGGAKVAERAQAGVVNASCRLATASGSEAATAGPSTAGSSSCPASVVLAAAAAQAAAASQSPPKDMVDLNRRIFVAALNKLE
The experiment in a line: Inhibitory activity against Human Cytomegalovirus (hCMV) protease. Also on record: species or system Human betaherpesvirus 5.

pIC50: −log10 of the molar value.

For the compound `Cc1csc2nc(Cc3ccc(C(=O)c4ccccc4)cc3)oc(=O)c12`, the pIC50 (in general, −log10 of the IC50, conventionally taken in molar units) is 6.10.
Then `CONc1cccc(C(=O)Nc2cccc(Cc3nc4scc(C)c4c(=O)o3)c2)c1`, with 5.66; and `Cc1csc2nc(Cc3ccc(C(=O)c4cccc(/N=[N+](\[O-])c5cccc(C(=O)c6ccc(Cc7nc8scc(C)c8c(=O)o7)cc6)c5)c4)cc3)oc(=O)c12`, with below 4.48.
Then `Cc1ccc(C(=O)c2cccc(NO)c2)cc1`, with 5.43.
Then `CC(=O)N(O)c1cccc(C(=O)c2ccc(Cc3nc4scc(C)c4c(=O)o3)cc2)c1`, with 5.96; and `CC(=O)c1cccc(NO)c1`, with 4.96.
`Cc1csc2nc(Cc3cccc(NC(=O)c4ccccc4)c3)oc(=O)c12` had a pIC50 of 5.82.
Then `CC(=O)ON(C(C)=O)c1cccc(C(=O)c2ccc(Cc3nc4scc(C)c4c(=O)o3)cc2)c1`, with 5.85; and `Cc1csc2nc(Cc3ccc(C(=O)c4cccc(N=O)c4)cc3)oc(=O)c12`, with 7.26.
Then `Cc1csc2nc(Cc3ccc(C(=O)c4ccc(NO)cc4)cc3)oc(=O)c12`, with 7.85.
Then `Cc1csc2nc(Cc3ccc(C(=O)c4ccc(CO)cc4)cc3)oc(=O)c12`, with 6.03; and `Cc1csc2nc(Cc3cccc(NC(=O)c4ccc(NN)cc4)c3)oc(=O)c12`, with 5.62.
`Cc1csc2nc(Cc3ccc(C(=O)c4cccc(CO)c4)cc3)oc(=O)c12` gave a pIC50 of 5.96.
With `Cc1csc2nc(Cc3cccc(NC(=O)c4ccc(NO)cc4)c3)oc(=O)c12`, the pIC50 was 7.21.
Then `Cc1csc2nc(Cc3cccc(NC(=O)c4cccc(NN)c4)c3)oc(=O)c12`, with 5.42; and `Cc1csc2nc(Cc3ccc(C(=O)c4cccc(NO)c4)cc3)[nH]c(=O)c12`, with 5.70; and `ONc1ccccc1`, with 5.05.
Take `Cc1csc2nc(Cc3cccc(NC(=O)c4cccc(NO)c4)c3)oc(=O)c12`: the pIC50 was 7.35.
Then `Cc1csc2nc(Cc3ccc(C(=O)c4cccc([N+](=O)[O-])c4)cc3)oc(=O)c12`, with 5.46.
Then `Cc1csc2nc(Cc3ccc(C(=O)c4cccc(N)c4)cc3)oc(=O)c12`, with 6.00.
Then `Cc1csc2nc(Cc3ccc(C(=O)c4cccc(NO)c4)cc3)oc(=O)c12`, with 7.72; and `Cc1csc2nc(Cc3ccc(C(=O)c4ccccc4)cc3)[nH]c(=O)c12`, with below 4.48; and `NO` [HYDROXYLAMMONIUM CHLORIDE], with below 4.48.

Values taken from ChEMBL document CHEMBL1131870, “The inhibition of human cytomegalovirus (hCMV) protease by hydroxylamine derivatives” (Bioorg Med Chem Lett, 1999).
